Assay [1] deals with pancreatic adenocarcinoma cells. Conditions: in one study; cited from earlier work.
Assay [2] has as its system pancreatic adenocarcinoma cell line, ATCC number CRL-2119. As to the kind of experiment: Number of pancreatic adenocarcinoma cells in culture, counted by microscope. Format: cell-based, human. The note with it: for number of cancer cells compared to controls: 48 hours. The text has this: The pancreatic adenocarcinoma cell line, ATCC number CRL-2119, was derived in 1985 from a nude mouse xenograft of a primary tumor removed from the head of the pancreas. It is a moderate to well-differentiated pancreatic adenocarcinoma of ductal origin. These pancreatic adenocarcinoma cells are stimulated to proliferate in culture by insulin, insulin-like growth factor I (IGF-I), epidermal growth factor (EGF), and transforming growth factor alpha (TGF alpha). These adenocarcinoma cells contain significant concentrations of tumor-associated antigens CEA, CA 125, and CA 19-9. In culture, these adenocarcinoma cells form monolayers of morphologically heterogeneous polar epithelial cells. These cells are tumorgenic in that they form tumors in athymic nude mice at the site of inoculation that are histologically similar to the tumor of origin.
Propagation of these cells was in Dulbecco's modified Eagle's plus Ham's F12-A 1:1 mixture of Dulbecco's modified Eagle's medium and Ham's F12 medium containing 1.2 g/L of sodium bicarbonate (Sigma Chemical Co., St. Louis, Mo.) supplemented with 15 mM HEPES and fetal bovine serum, 10%, at a temperature of 37° C. as recommended by the ATCC.
These pancreatic adenocarcinoma cells were subcultured (passaged) by removing spent (i.e., old) medium by aspiration, and then adding calcium and magnesium free Hank's Balanced Salt Solution with 0.25% trypsin and 0.03% ethylenediaminetetracetic acid (EDTA). The culture was allowed to sit at room temperature for 2 to 5 minutes. Fresh medium was added to the adenocarcinoma cells which were dispensed into new flasks, with subculture every 6 to 8 days. The growth medium was changed every three days.
After these adenocarcinoma cells were subcultured for 24 hours, they were then seeded to coverslips and transferred to 24 microwell plates (NUCOLON, Roskilde Denmark), with 1 ml Dulbeco Modified Eagle's (DME)/[…] nutrient culture media (Sigma Chemical Co.) with 10% fetal bovine serum (Atlanta Biologicals, Norcross, Ga.). After 24 hours, wells were washed twice with Dulbecco's Modified Eagle's/Ham's F12 with 0.1% bovine serum albumin (Sigma-Aldrich, St. Louis, Mo.) and allowed to incubate in this serum free medium for an additional 24 hour period of serum deprivation. Serum-free media was utilized to remove all variables (EGF, etc.) present in serum in order that interpretation of any data obtained would be straightforward. After 24 hours of serum deprivation, media volume was reduced to 250 μL per well with or without the respective peptide hormones at their 1 μM concentrations (1% of this volume). The adenocarcinoma cells were then incubated for various periods of time (24, 48, 72, and 96 hours).At the end of the above time periods, hematoxylin was added for 5 minutes to make the cells more visible for counting, and then they were washed for 5 minutes. The coverslips were then placed face down on microscope slides with the addition of 6 μl of histologic grade phosphate buffered saline (PBS)/I-glycine that had been filtered immediately before use with a 0.22 μm polyethersulfone, nonpyrogenic, sterile, low protein binding membrane (Corning 43117, Corning Inc., Corning, N.Y.). The number of adenocarcinoma cells were then counted with a cell counter evaluating ten fields of the microscope slide at 40× along the X-axis with an Olympus BH-2 microscope (Atlanta, Ga.). This evaluation was repeated on six separate occasions with the number of adenocarcinoma cells reflecting 60 observations for each group, i.e., 60 observations for controls and 60 observations for each of the four groups with respective peptide hormones. The only variable in this investigation was whether one of the four peptide hormones was added to the pancreatic adenocarcinoma cells. Otherwise all the adenocarcinoma cells were treated the same, i.e., with same culture medium, time of incubation, and processing of cells for the various investigations. […]

Assay [3] deals with pancreatic adenocarcinoma cells. As to the kind of experiment: DNA synthesis by bromodeoxyuridine (BrdU) incorporation into adenocarcinoma cells. The assay is classed as cell-based, human. The note with it: 24 hours. The text has this: To investigate whether these peptide hormones were inhibiting DNA synthesis and cell proliferation bromodeoxyuridine (BrdU) incorporation into the adenocarcinoma cells was utilized. BrdU was from BD Bioscience, San Jose, Calif. DNA synthesis and doubling of the genome take place during the synthetic or S phase. BrdU is a thymidine analog incorporated into nuclear DNA during the S phase of the cell cycle. Immunohistochemical methods use BrdU also as a marker of cell proliferation in cancer biology studies. After 24 hours in culture with 1 μM of LANP, vessel dilator, kaliuretic peptide, or ANP, respectively, or with no peptide hormone (i.e., control), BrdU in a final concentration of 10 μM in the cell culture medium was added for 45 minutes—which is time in which the cells are in the logarithmic phase of cell proliferation. For immunohistochemistry, a BrdU in situ detection kit from Becton Dickinson Immunocytochemistry Systems, San Jose, Calif., was utilized.
After the 45 minutes with BrdU, the adenocarcinoma cells were washed three times in phosphate buffered saline (PBS), five minutes each. This was followed by placing the cells in a −80° C. freezer for five minutes and then 100% methanol was added at 5° C. in order for the cells to become permeable enabling the anti-BrdU antibody to reach the nucleus of the cell. The cells were then washed again in PBS before 100 μl of biotinylated anti-BrdU antibody was added. The coverslips were then incubated in a humidified chamber for one hour. After this incubation, the slides were rinsed in PBS, two minutes each. Then streptavidin-horseradish peroxidase (HRP) was added to each coverslip. The cells were then incubated for 30 minutes. Streptavidin-HRP binds to biotinylated anti-BrdU and HRP is used with addition of diaminobenzidine (DAB) substrate system to visualize BrdU incorporation into the adénocarcinoma cells. After the 30 minute incubation with streptavidin-HRP, the coverslips were rinsed in PBS, two minutes each time, before adding the DAB substrate solution, which contains DAB chromagen and DAB buffer, for five minutes. The coverslips were then rinsed in water, two minutes each time before counterstaining the slides with hematoxylin for 60 seconds followed by a thorough rinsing in water for five minutes. The incorporation of the BrdU stain into the nucleus was then counted using a Nikon Inverted Diaphot-TMD Microscope (Tokyo, Japan). The number of stained nuclei was compared in the four peptide hormone groups to the positive control group. The negative control for these studies was provided by Becton Dickinson Immunocytochemistry Systems.
BrdU has an advantage over ^3H-thymidine incorporation in that it takes less time and provides high resolution.
Cyclic GMP and prostaglandin E2 are the two known mediators of all of the previously described biologic effects of these four peptide hormones. All four of these peptide hormones-induced vasodilation of vasculature is mediated by increased cyclic GMP concentrations via enhancing guanylate cyclase activity. […] ANPs effects in the kidney are thought to be mediated by cyclic GMP. Each of these peptide hormones increase cyclic GMP while simultaneously dilating vasculature. 8 bromo-cyclic GMP reproduces these vasodilatory effects. For the present investigation of the mechanism of these peptide hormones' ability to inhibit DNA synthesis in cancer cells, 8-bromoguanosine 3′,5′-cyclic monophosphate (i.e., 8-bromo cyclic GMP, Sigma-Aldrich Co., St. Louis, Mo.) was utilized. 8-bromo cyclic GMP is a cell-permeable analog of cyclic GMP. 8-bromo cyclic GMP effects on DNA synthesis were investigated in dose-response curves with cyclic GMP concentrations ranging from 100 pM to 5 mM.
Prostaglandin E2, i.e., (5Z, 11α, 13E, 15S)-11, 15-dihydro-9-oxo-prosta-5, 13-dien-I-oic acid was purchased from Sigma-Aldrich, St. Louis, Mo. […]

Assay [4] has as its system rat mesangial cells. Conditions: cited from earlier work.
Assay [5] has as its system hepatoblastoma cells. Conditions: cited from earlier work.

Regarding `O=c1[nH]cc(F)c(=O)[nH]1` [5-FU, 5-fluorouracil], the “decrease in pancreatic adenocarcinoma cells in culture” value in assay [1] was 16%.
As to “LANP: first 30 amino acids from the N-terminal end of the ANP prohormone (NPMYNAVSNADLMDFKNLLDHLEEKMPLED; long-acting natriuretic peptide; UniProt P01160 26-55, looked up, fragment)”, the “decrease in the number of adenocarcinoma cells” value in assay [2] (1 μM, 24 hours, vs untreated cells) is recorded as 47%; in assay [2] (1 μM, 72 hours, vs untreated cells), 47%; in assay [2] (1 μM, 96 hours, vs untreated cells), 48%; in assay [2] (time not stated) it was about 50%. The “number of adenocarcinoma cells” value in assay [2] (1 μM, 24 hours, untreated 183.4+/−8) is recorded as 97.7+/−3 cells per high powered field. In assay [2] (1 μM), the “number of cancer cells compared to controls” value amounted to 43%. For the same compound, the “inhibition of DNA synthesis” value in assay [3] (1 μM) was 84%.
Regarding `CC[C@H](C)[C@@H]1NC(=O)[C@H](CCCNC(=N)N)NC(=O)[C@H](CC(=O)O)NC(=O)[C@H](CCSC)NC(=O)[C@H](CCCNC(=N)N)NC(=O)CNC(=O)CNC(=O)[C@H](Cc2ccccc2)NC(=O)[C@@H](NC(=O)[C@H](CO)NC(=O)[C@H](CO)NC(=O)[C@H](CCCNC(=N)N)NC(=O)[C@H](CCCNC(=N)N)NC(=O)[C@H](CC(C)C)NC(=O)[C@@H](N)CO)CSSC[C@@H](C(=O)N[C@@H](CC(N)=O)C(=O)N[C@@H](CO)C(=O)N[C@@H](Cc2ccccc2)C(=O)N[C@@H](CCCNC(=N)N)C(=O)N[C@@H](Cc2ccc(O)cc2)C(=O)O)NC(=O)CNC(=O)[C@H](CC(C)C)NC(=O)CNC(=O)[C@H](CO)NC(=O)[C@H](CCC(N)=O)NC(=O)[C@H](C)NC(=O)CNC1=O` [ANP], the “number of cancer cells compared to controls” value in assay [2] (1 μM) stood at 33%. Also, the “inhibition of DNA synthesis” value is listed as 83% in assay [3] (1 μM), 47% to 60 in assay [4] and 22% in assay [5].
On to `Nc1nc2c(nc(Br)n2[C@@H]2O[C@@H]3COP(=O)(O)O[C@H]3[C@H]2O)c(=O)[nH]1` [8-bromo cyclic GMP, 8-bromoguanosine 3′,5′-cyclic monophosphate], for which the “decrease in DNA synthesis” value is given as 25% in assay [3] (1 nM); 34% in assay [3] (1 μM); 39% in assay [3] (100 μM); 42% in assay [3] (1 mM); 46% in assay [3] (3 mM); 51% in assay [3] (5 mM).
Consider `CCCCC[C@H](O)/C=C/[C@H]1[C@H](O)CC(=O)[C@@H]1C/C=C\CCCC(=O)O` [prostaglandin E2, (5Z, 11α, 13E, 15S)-11, 15-dihydro-9-oxo-prosta-5, 13-dien-I-oic acid], for which the “decrease in DNA synthesis” value turned out to be 4% in assay [3] (10 pg/ml); 5% in assay [3] (1 ng/ml); 5% in assay [3] (10 ng/ml); 9% in assay [3] (0.1 μg/ml); 11% in assay [3] (1 μg/ml); 14% in assay [3] (10 μg/ml). Besides, the “decrease in DNA synthesis” value in assay [3] (1 mg/ml) was 23%.

These data come from US6943147B2, “Cancer treatment using proANP peptides” (University of South Florida, priority 2003, dated 2005).
